Data taken from ChEMBL document CHEMBL1153200, “Discovery of 3,6-dihydro-2H-pyran as a morpholine replacement in 6-aryl-1H-pyrazolo[3,4-d]pyrimidines and 2-arylthieno[3,2-d]pyrimidines: ATP-competitive inhibitors of the mammalian target of rapamycin (mTOR)” (Bioorg Med Chem Lett, 2010).

Experiments:
[1] = Selectivity ratio, IC50 for PI3Kalpha to IC50 for human mTOR
[2] = target: Serine/threonine-protein kinase mTOR (Homo sapiens, UniProt P42345); experiment: Inhibition of mTOR in HEK293 cells by DELFIA assay; format: cell-based
[3] = target: Phosphatidylinositol 4,5-bisphosphate 3-kinase catalytic subunit alpha isoform (Homo sapiens, UniProt P42336); experiment: Inhibition of PI3Kalpha by fluorescence polarization assay
Sequence of Phosphatidylinositol 4,5-bisphosphate 3-kinase catalytic subunit alpha isoform (P42336 whole entry, canonical isoform): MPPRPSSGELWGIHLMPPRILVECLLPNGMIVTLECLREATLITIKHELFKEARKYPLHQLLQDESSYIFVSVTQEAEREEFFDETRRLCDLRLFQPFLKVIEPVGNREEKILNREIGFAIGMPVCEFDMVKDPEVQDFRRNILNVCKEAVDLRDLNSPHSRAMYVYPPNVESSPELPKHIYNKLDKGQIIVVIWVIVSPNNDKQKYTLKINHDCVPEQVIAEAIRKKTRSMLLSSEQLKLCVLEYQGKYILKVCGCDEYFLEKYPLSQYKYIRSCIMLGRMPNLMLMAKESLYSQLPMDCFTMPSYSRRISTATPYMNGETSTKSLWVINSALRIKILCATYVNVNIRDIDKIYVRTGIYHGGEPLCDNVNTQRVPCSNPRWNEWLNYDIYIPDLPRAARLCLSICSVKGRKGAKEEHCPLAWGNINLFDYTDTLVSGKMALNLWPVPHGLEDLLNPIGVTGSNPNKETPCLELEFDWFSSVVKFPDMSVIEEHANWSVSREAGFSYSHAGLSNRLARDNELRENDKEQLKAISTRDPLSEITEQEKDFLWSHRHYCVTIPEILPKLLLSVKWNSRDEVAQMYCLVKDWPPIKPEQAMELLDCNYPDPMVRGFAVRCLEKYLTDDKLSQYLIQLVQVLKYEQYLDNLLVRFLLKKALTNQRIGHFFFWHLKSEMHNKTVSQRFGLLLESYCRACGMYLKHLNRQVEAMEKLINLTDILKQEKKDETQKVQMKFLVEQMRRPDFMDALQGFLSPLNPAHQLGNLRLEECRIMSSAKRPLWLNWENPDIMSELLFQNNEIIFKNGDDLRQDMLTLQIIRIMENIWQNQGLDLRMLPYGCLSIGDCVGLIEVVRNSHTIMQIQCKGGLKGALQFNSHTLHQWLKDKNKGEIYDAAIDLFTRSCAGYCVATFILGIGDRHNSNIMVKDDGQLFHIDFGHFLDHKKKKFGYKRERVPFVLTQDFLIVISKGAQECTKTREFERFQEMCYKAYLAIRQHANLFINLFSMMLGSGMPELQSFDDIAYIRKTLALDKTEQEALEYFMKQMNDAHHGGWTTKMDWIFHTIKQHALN

[4] = Half life in nude mouse microsomes; format: ADME, Microsome
LNCaP = experiment: Cytotoxicity against human LNCAP cells after 1 to 2 hrs by MTS assay; format: functional, cell-based

SMILES | Ratio IC50 [1] | IC50 [2] [nM] | IC50 [3] [nM] | IC50 ([2]; hek293) [nM] | half-life [4] [min] | IC50 (LNCaP) [nM]
Oc1cccc(-c2nc(C3=CCOCC3)c3cnn(-c4ccccc4)c3n2)c1 | 3.3 | 18 | 59 | – | – | –
CNC(=O)Nc1ccc(-c2nc(N3CCOCC3)c3cnn(CC(F)(F)F)c3n2)cc1 | 194 | – | – | 1 | 26 | 230
Oc1cccc(-c2nc(C3CCOCC3)c3cnn(-c4ccccc4)c3n2)c1 | 2 | 500 | 1010 | – | – | –
O=C(NCCF)Nc1ccc(-c2nc(N3CCOCC3)c3cnn(CC(F)(F)F)c3n2)cc1 | 525 | – | – | 0.6 | 22 | 60
O=C(Nc1ccc(-c2nc(N3CCOCC3)c3cnn(CC(F)(F)F)c3n2)cc1)Nc1cccnc1 | 50 | 0.2 | – | – | > 30 | < 27
CNC(=O)Nc1ccc(-c2nc(C3=CCOCC3)c3cnn(CC(F)(F)F)c3n2)cc1 | 100 | 2 | 200 | – | 13 | 260
O=C(NCCF)Nc1ccc(-c2nc(C3=CCOCC3)c3sccc3n2)cc1 | 560 | 2.5 | 1370 | – | 6 | 1300
O=C(NCCF)Nc1ccc(-c2nc(C3=CCOCC3)c3cnn(CC(F)(F)F)c3n2)cc1 | 2300 | 1 | – | – | > 30 | 72
O=C(Nc1ccncc1)Nc1ccc(-c2nc(C3=CCOCC3)c3sccc3n2)cc1 | 15 | 1.8 | 27 | – | > 30 | 200
O=C(Nc1ccccc1)Nc1ccc(-c2nc(C3=CCOCC3)c3sccc3n2)cc1 | 4 | 7.2 | 28 | – | 21 | 800
CCNC(=O)Nc1ccc(-c2nc(C3=CCOCC3)c3sccc3n2)cc1 | 319 | 3.3 | 1050 | – | 3 | 470
O=C(Nc1ccc(-c2nc(C3=CCOCC3)c3cnn(CC(F)(F)F)c3n2)cc1)Nc1cccnc1 | 66 | 1 | – | – | 25 | 380
O=C(Nc1ccc(-c2nc(C3=CCOCC3)c3sccc3n2)cc1)Nc1cccnc1 | 32 | 1.1 | 35 | – | > 30 | 210
